The values that follow come from patent US8604217B2, “Compound, a process for its preparation, a pharmaceutical composition, use of a compound, a method for modulating or regulating serine/threonine kinases and a serine/threonine kinases modulating agent” (Selvita S.A., priority 2009, dated 2013).

One experiment has as its target PKA(h) (Homo sapiens (Human), UniProt P17612). In words: KinaseProfiler kinase panel. The experiment is classed as biochemical.
For a further experiment, the target named is TRKA(h) (Homo sapiens (Human), UniProt P04629). In words: KinaseProfiler kinase panel. In kind it is biochemical.
The target in the next experiment is PrKX(h) (Homo sapiens (Human), UniProt P51817). In words: KinaseProfiler kinase panel. The experiment is classed as biochemical.
The target in a further experiment is cKit(V560G)(h) (Homo sapiens (Human), UniProt P10721, V560G). Nature of the experiment: KinaseProfiler kinase panel. In kind it is biochemical.
For the next experiment, the target named is ROCK-II(h) (Homo sapiens (Human), UniProt O75116). Nature of the experiment: KinaseProfiler kinase panel. The experiment is classed as biochemical.
For a further experiment, the target named is Tec(h) activated (Homo sapiens (Human), UniProt P42680). Nature of the experiment: KinaseProfiler kinase panel. The experiment is classed as biochemical.
The next experiment has as its target Src(T341M)(h) (Homo sapiens (Human), UniProt P12931, T341M). Nature of the experiment: KinaseProfiler kinase panel. In kind it is biochemical.
Another experiment deals with Ret (V804L)(h) (Homo sapiens (Human), UniProt P07949, V804L). Nature of the experiment: KinaseProfiler kinase panel. The experiment is classed as biochemical.
Another experiment concerns the target DMPK(h) (Homo sapiens (Human), UniProt Q09013). Nature of the experiment: KinaseProfiler kinase panel. The experiment is classed as biochemical.
Another experiment concerns the target PhKγ2(h) (Homo sapiens (Human), UniProt P15735). Nature of the experiment: KinaseProfiler kinase panel. In kind it is biochemical.
The target in the next experiment is Fyn(h) (Homo sapiens (Human), UniProt P06241). In words: KinaseProfiler kinase panel. The experiment is classed as biochemical.
The target in the next experiment is PKCγ(h) (Homo sapiens (Human), UniProt P05129). In words: KinaseProfiler kinase panel. The experiment is classed as biochemical.
A further experiment concerns the target ASK1(h) (Homo sapiens (Human), UniProt Q99683). Nature of the experiment: KinaseProfiler kinase panel. The experiment is classed as biochemical.
Another experiment concerns the target MAPKAP-K2(h) (Homo sapiens (Human), UniProt P49137). Nature of the experiment: KinaseProfiler kinase panel. The experiment is classed as biochemical.
The target in a further experiment is ARK5(h) (Homo sapiens (Human), UniProt O60285). Nature of the experiment: KinaseProfiler kinase panel. In kind it is biochemical.
The target in a further experiment is SAPK2a(T106M)(h) (Homo sapiens (Human), UniProt Q16539, T106M). Nature of the experiment: KinaseProfiler kinase panel. The experiment is classed as biochemical.
A further experiment has as its target p70S6K(h) (Homo sapiens (Human), UniProt P23443). Nature of the experiment: KinaseProfiler kinase panel. The experiment is classed as biochemical.
A further experiment concerns the target NEK2(h) (Homo sapiens (Human), UniProt P51955). In words: KinaseProfiler kinase panel. In kind it is biochemical.
The next experiment has as its target Rsk2(h) (Homo sapiens (Human), UniProt P51812). In words: KinaseProfiler kinase panel. In kind it is biochemical.
The next experiment has as its target Ros(h) (Homo sapiens (Human), UniProt P08922). In words: KinaseProfiler kinase panel. The experiment is classed as biochemical.
In the next experiment the target is EGFR(T790M, L858R)(h) (Homo sapiens (Human), UniProt P00533, L858R/T790M). In words: KinaseProfiler kinase panel. In kind it is biochemical.
A further experiment concerns the target CDK1/cyclinB(h) (Homo sapiens (Human), UniProt P06493). In words: KinaseProfiler kinase panel. In kind it is biochemical.
The next experiment deals with BRK(h) (Homo sapiens (Human), UniProt Q13882). Nature of the experiment: KinaseProfiler kinase panel. In kind it is biochemical.
Another experiment has as its target VRK2(h) (Homo sapiens (Human), UniProt Q86Y07). In words: KinaseProfiler kinase panel. In kind it is biochemical.
A further experiment has as its target TAO1(h) (Homo sapiens (Human), UniProt Q7L7X3). Nature of the experiment: KinaseProfiler kinase panel. The experiment is classed as biochemical.
The next experiment deals with Src(1-530)(h) (Homo sapiens (Human), UniProt P12931). In words: KinaseProfiler kinase panel. In kind it is biochemical.
Another experiment addresses SIK(h) (Homo sapiens (Human), UniProt P57059). Nature of the experiment: KinaseProfiler kinase panel. The experiment is classed as biochemical.
For a further experiment, the target named is Met(D1246N)(h) (Homo sapiens (Human), UniProt P08581, D1246N). Nature of the experiment: KinaseProfiler kinase panel. The experiment is classed as biochemical.
A further experiment addresses MAPK2(m) (Mus musculus (Mouse), UniProt P63085). In words: KinaseProfiler kinase panel. The experiment is classed as biochemical.
In another experiment the target is HIPK1(h) (Homo sapiens (Human), UniProt Q86Z02). Nature of the experiment: KinaseProfiler kinase panel. In kind it is biochemical.
The target in another experiment is PKCμ(h) (Homo sapiens (Human), UniProt Q15139). Nature of the experiment: KinaseProfiler kinase panel. In kind it is biochemical.
The target of the next experiment is CDK6/cyclinD3(h) (Homo sapiens (Human), UniProt Q00534). In words: KinaseProfiler kinase panel. In kind it is biochemical.
Another experiment has as its target cKit(D816V)(h) (Homo sapiens (Human), UniProt P10721, D816V). Nature of the experiment: KinaseProfiler kinase panel. In kind it is biochemical.
A further experiment deals with Flt3(D835Y)(h) (Homo sapiens (Human), UniProt P36888, D835Y). Nature of the experiment: KinaseProfiler kinase panel. In kind it is biochemical.
In a further experiment the target is PAK5(h) (Homo sapiens (Human), UniProt Q9P286). In words: KinaseProfiler kinase panel. The experiment is classed as biochemical.
The target in another experiment is NEK6(h) (Homo sapiens (Human), UniProt Q9HC98). In words: KinaseProfiler kinase panel. The experiment is classed as biochemical.
The target of another experiment is FGFR1(h) (Homo sapiens (Human), UniProt P11362). In words: KinaseProfiler kinase panel. In kind it is biochemical.
For another experiment, the target named is DYRK2(h) (Homo sapiens (Human), UniProt Q92630). Nature of the experiment: KinaseProfiler kinase panel. The experiment is classed as biochemical.
The next experiment has as its target CDK2/cyclin A (Homo sapiens (Human), UniProt P24941). Conditions: tested at 1 μM; cited from earlier work.

Ros(h), sequence (P08922 28-2347): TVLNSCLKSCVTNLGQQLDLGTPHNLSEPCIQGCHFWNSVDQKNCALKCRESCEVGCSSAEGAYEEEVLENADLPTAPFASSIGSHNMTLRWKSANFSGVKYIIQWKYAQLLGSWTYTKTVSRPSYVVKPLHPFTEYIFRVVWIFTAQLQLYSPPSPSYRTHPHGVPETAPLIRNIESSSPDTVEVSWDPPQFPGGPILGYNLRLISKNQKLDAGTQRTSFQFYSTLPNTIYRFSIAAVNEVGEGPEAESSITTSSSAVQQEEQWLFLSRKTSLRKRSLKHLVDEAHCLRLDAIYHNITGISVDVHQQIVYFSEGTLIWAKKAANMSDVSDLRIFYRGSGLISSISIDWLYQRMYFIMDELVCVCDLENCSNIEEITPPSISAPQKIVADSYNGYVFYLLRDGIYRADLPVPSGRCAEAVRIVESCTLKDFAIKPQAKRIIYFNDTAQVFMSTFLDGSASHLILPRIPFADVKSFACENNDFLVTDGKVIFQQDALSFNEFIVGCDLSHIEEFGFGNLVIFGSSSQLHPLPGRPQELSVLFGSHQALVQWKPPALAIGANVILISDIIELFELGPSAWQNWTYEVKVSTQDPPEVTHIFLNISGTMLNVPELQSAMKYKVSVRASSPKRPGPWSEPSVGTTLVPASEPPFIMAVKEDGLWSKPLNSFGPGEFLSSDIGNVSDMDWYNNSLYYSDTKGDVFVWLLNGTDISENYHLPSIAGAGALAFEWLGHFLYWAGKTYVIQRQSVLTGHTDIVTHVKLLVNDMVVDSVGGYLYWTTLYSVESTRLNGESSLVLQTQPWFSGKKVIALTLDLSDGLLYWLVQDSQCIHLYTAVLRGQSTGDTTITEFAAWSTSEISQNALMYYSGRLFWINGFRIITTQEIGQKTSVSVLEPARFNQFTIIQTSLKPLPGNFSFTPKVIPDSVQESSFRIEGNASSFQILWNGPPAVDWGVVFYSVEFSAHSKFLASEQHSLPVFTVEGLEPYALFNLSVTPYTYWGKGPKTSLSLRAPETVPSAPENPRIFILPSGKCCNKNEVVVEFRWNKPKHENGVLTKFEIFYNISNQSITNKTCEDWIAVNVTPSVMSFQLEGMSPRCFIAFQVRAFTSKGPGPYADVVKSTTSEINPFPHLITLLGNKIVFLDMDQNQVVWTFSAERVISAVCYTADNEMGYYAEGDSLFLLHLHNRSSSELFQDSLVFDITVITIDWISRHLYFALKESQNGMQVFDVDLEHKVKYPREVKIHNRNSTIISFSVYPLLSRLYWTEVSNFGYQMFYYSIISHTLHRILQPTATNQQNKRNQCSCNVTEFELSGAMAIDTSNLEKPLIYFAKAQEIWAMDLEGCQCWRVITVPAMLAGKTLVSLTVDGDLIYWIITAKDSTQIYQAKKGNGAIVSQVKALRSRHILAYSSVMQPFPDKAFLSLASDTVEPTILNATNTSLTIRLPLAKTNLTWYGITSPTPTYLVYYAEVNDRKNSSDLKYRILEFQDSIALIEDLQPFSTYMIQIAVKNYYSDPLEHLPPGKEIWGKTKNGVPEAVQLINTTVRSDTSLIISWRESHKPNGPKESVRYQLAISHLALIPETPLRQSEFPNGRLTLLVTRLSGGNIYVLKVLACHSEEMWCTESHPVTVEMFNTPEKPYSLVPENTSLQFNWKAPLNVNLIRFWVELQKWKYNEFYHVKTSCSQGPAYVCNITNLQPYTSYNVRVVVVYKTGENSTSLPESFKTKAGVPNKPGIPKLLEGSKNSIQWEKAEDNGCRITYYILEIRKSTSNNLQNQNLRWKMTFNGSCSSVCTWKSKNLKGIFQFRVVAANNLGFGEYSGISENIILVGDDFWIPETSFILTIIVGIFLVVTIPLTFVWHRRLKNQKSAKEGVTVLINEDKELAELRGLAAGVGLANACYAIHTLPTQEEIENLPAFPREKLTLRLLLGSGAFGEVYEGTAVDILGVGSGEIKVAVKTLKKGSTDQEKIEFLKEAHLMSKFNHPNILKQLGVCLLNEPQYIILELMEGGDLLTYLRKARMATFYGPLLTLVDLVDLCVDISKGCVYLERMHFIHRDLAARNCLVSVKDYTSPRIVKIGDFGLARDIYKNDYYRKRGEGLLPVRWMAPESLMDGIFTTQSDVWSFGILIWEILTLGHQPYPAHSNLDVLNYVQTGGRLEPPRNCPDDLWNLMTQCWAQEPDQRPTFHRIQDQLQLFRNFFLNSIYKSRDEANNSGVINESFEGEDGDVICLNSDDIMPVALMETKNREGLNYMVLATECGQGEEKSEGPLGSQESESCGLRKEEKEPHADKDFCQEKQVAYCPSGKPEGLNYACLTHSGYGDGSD
PrKX(h), sequence (P51817 whole entry): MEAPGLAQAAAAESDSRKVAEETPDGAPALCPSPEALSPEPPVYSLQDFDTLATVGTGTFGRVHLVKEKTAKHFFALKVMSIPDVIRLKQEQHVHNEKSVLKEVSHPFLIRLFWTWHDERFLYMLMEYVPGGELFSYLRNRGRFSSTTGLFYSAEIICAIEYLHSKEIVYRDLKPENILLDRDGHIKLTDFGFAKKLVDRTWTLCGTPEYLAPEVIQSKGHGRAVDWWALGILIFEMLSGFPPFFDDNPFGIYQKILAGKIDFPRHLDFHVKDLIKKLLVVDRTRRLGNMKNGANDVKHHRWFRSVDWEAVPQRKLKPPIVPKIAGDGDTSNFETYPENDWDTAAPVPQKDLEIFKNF
Rsk2(h), sequence (P51812 whole entry): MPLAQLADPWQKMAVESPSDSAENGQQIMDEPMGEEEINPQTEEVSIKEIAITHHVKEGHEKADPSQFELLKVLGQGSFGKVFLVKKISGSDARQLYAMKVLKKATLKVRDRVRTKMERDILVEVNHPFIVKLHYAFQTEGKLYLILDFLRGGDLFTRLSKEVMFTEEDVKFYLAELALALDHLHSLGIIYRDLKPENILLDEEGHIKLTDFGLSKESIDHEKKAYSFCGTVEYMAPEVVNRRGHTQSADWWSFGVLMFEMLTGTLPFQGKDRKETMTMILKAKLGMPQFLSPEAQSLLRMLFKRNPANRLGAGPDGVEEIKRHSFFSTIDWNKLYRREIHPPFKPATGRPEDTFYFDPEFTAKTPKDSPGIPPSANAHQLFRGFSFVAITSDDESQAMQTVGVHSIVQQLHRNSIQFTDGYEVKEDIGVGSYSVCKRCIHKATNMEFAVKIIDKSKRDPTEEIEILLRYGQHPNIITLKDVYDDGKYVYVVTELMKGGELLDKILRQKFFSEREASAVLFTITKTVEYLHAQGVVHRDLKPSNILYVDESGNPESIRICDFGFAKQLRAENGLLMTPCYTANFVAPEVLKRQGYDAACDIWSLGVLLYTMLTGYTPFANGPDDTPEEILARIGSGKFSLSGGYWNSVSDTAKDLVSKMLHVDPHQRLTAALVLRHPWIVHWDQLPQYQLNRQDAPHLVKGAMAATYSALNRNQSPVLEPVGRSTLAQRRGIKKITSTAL
SAPK2a(T106M)(h), sequence (Q16539 whole entry T106M): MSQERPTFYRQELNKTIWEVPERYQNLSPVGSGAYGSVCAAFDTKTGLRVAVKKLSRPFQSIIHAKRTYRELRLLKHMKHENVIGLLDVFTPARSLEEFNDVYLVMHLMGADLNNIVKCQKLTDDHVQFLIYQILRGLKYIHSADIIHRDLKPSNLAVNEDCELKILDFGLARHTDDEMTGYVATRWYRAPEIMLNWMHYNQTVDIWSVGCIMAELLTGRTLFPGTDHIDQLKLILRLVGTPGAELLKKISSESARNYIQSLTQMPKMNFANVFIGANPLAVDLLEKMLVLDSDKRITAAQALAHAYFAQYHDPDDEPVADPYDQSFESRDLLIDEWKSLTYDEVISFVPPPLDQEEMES
Ret (V804L)(h), sequence (P07949 29-1114 V804L): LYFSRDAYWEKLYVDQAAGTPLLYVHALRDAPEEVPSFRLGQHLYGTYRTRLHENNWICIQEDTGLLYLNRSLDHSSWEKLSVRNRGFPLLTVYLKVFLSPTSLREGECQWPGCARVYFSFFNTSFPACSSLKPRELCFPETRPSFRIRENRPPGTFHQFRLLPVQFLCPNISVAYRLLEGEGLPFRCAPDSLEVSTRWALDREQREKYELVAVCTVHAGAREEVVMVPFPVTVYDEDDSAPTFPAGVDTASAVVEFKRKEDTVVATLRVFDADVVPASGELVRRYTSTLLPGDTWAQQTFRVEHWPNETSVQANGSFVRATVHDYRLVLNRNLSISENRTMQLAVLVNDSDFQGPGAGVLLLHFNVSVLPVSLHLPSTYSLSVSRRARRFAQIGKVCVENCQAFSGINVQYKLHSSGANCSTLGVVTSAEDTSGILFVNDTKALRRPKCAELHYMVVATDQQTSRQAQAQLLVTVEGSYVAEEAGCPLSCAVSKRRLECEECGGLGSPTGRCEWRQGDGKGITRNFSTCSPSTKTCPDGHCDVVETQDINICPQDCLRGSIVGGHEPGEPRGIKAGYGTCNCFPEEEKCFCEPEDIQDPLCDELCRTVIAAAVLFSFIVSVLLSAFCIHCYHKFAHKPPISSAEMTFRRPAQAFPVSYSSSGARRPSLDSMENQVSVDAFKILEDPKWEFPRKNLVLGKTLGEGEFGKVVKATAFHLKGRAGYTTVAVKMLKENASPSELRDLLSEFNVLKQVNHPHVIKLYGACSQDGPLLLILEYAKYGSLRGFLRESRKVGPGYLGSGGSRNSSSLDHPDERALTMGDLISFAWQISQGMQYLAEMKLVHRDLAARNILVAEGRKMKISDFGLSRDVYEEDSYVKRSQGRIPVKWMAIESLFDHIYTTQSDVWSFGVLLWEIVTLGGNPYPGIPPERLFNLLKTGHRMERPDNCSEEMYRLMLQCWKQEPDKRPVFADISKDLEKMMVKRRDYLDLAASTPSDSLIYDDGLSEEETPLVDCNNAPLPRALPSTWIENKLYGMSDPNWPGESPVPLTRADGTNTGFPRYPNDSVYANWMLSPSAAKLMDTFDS

As for `CCn1c(N2CCNCC2)nc2c(Br)c(Br)c(Br)c(Br)c21` [Compound 416, 4,5,6,7-tetrabromo-1-ethyl-2-(piperazin-1-yl)-1H-benzo[d]imidazole], the remaining activity at 1 µM at PKA(h) turned out to be 70%; on TRKA(h), 35%; on PrKX(h) it was 74%; at cKit(V560G)(h), 35%; at ROCK-II(h), 81%; on Tec(h) activated, 107%. Moreover, the remaining activity at 1 µM at Src(T341M)(h) was determined as 40%; at Ret (V804L)(h) it was 26%; on DMPK(h), 97%; on PhKγ2(h), 88%; at Fyn(h), 73%; on PKCγ(h) it was 93%. For the same molecule, the remaining activity at 1 µM at ASK1(h) stood at 100%; at MAPKAP-K2(h), 101%; at ARK5(h) it was 93%; on SAPK2a(T106M)(h), 86%; at p70S6K(h) it was 56%; on NEK2(h), 91%. Besides, the remaining activity at 1 µM at Rsk2(h) stood at 81%; on Ros(h) it was 104%; on EGFR(T790M, L858R)(h), 11%; at CDK1/cyclinB(h), 7%; at BRK(h), 76%; at VRK2(h), 103%. Besides, the remaining activity at 1 µM at TAO1(h) came to 6%; at Src(1-530)(h), 65%; on SIK(h) it was 84%; at Met(D1246N)(h), 74%; on MAPK2(m), 82%; on HIPK1(h) it was 8%. Besides, the remaining activity at 1 µM at PKCμ(h) was 30%; on CDK6/cyclinD3(h), 91%; at cKit(D816V)(h), 61%; at Flt3(D835Y)(h), 1%; on PAK5(h) it was 93%; on NEK6(h), 97%. Further, the remaining activity at 1 µM came out at 99% on FGFR1(h) and 45% at DYRK2(h).

Regarding `CN(C)c1nc2c(Br)c(Br)c(Br)c(Br)c2[nH]1` [DMAT, 2-dimethylamino-4,5,6,7-tetrabromo-1H-benzimidazole, reference compound], the “inhibition of CDK2/cyclin A activity” value at CDK2/cyclin A is recorded as “do not inhibit”.
